Results: patent US3945994A, “Novel acid compounds” (Gist-Brocades N.V., priority 1973, dated 1976)
In brackets after ≈: the same amount, converted by molar mass. Read-outs that look alike come from different tables or passages of the source.

Tests used:
Format in all cases: cell-based
Proteus rettgeri A 821 [1] = details: Providencia rettgeri, A821; agar serial dilution, 24 hours at 37°C
[2] = tested on: Streptococcus faecalis L 80; details: Enterococcus faecalis, L80; agar serial dilution, 24 hours at 37°C
[3] = tested on: Diplococcus pneumoniae L 54; details: Streptococcus pneumoniae, L54; agar serial dilution, 24 hours at 37°C
[4] = tested on: Klebsiella pneumoniae A 809; details: A809, agar serial dilution, 24 hours at 37°C
[5] = tested on: Staphylococcus aureus A 355'; details: agar serial dilution, 24 hours at 37°C
[6] = tested on: Pseudomonas aeruginosa Wyeth A 1058; details: WYETHA1058, agar serial dilution, 24 hours at 37°C
Proteus mirabilis H 3 = details: H3, agar serial dilution, 24 hours at 37°C
[7] = tested on: Staphylococcus aureus A 2000; details: A2000, agar serial dilution, 24 hours at 37°C
[8] = tested on: Bacillus subtilis ATCC 6633; details: ATCC6633, agar serial dilution, 24 hours at 37°C
[9] = tested on: Staphylococcus aureus A 2001; details: A2001, agar serial dilution, 24 hours at 37°C
Salmonella dublin P 43 = details: Salmonella enterica, P43; agar serial dilution, 24 hours at 37°C
[10] = tested on: Pseudomonas aeruginosa 2396; details: agar serial dilution, 24 hours at 37°C
Proteus mirabilis A 1200 = details: A1200, agar serial dilution, 24 hours at 37°C
[11] = tested on: Pseudomonas aeruginosa H 10; details: H10, agar serial dilution, 24 hours at 37°C
Escherichia coli U 20 = details: U20, agar serial dilution, 24 hours at 37°C
[12] = tested on: Streptococcus haemolyticus A 266; details: A266, agar serial dilution, 24 hours at 37°C
[13] = tested on: Staphylococcus aureus A 321; details: A321, agar serial dilution, 24 hours at 37°C
[14] = tested on: Haemophilus influenzae A 1030; details: A1030, agar serial dilution, 24 hours at 37°C
[15] = tested on: Pasteurella multocida A 723; details: A723, agar serial dilution, 24 hours at 37°C
[16] = tested on: Salmonella typhimurium R 127; details: Salmonella enterica, agar serial dilution, 24 hours at 37°C
Proteus morganii 2241 = details: Morganella morganii, agar serial dilution, 24 hours at 37°C
[17] = tested on: Streptococcus haemolyticus A 1088; details: A1088, agar serial dilution, 24 hours at 37°C
Proteus mirabilis H3 = experiment: micro serial dilution test, MIC; details: micro serial dilution (between brackets), 30°C or 37°C, about 18 hours
[18] = tested on: Salmonella typhimurium R172; details: Salmonella enterica, agar serial dilution, 24 hours at 37°C
Proteus mirabilis A1200 = experiment: micro serial dilution test, MIC; details: micro serial dilution (between brackets), 30°C or 37°C, about 18 hours
[19] = tested on: Haemophilus influenzae A 1030; experiment: micro serial dilution test, MIC; details: A1030, micro serial dilution (between brackets), 30°C or 37°C, about 18 hours
Proteus rettgeri A 821 [20] = experiment: micro serial dilution test, MIC; details: Providencia rettgeri, A821; micro serial dilution (between brackets), 30°C or 37°C, about 18 hours

Structure (SMILES) | MIC [2] [µg/mL] | MIC [3] [µg/mL] | MIC [4] [µg/mL] | MIC [6] [µg/mL] | MIC [7] [µg/mL] | MIC [8] [µg/mL] | MIC [9] [µg/mL] | MIC (Salmonella dublin P 43) [µg/mL] | MIC [10] [µg/mL] | MIC [11] [µg/mL] | MIC (Escherichia coli U 20) [µg/mL] | MIC [13] [µg/mL] | MIC [15] [µg/mL] | MIC (Proteus morganii 2241) [µg/mL] | also measured
CCOC(=O)NNS(=O)(=O)NC(=O)N[C@@H](C(=O)N[C@@H]1C(=O)N2[C@@H]1SC(C)(C)[C@@H]2C(=O)O)c1ccccc1 [XV, D-6-[α-{3-(ethoxycarbonylhydrazinosulfonyl)-ureido}benzylcarbonamido]-penicillanic acid] | 25 (≈ 44.8 µM) | 9 (≈ 16.1 µM) | 100 (≈ 179 µM) | 100 (≈ 179 µM) | 12.5 (≈ 22.4 µM) | 1 (≈ 1.79 µM) | 6 (≈ 10.7 µM) | 12.5 (≈ 22.4 µM) | 50 (≈ 89.5 µM) | > 100 | 12.5 (≈ 22.4 µM) | 1.5 (≈ 2.69 µM) | 0.25 (≈ 0.448 µM) | 6 (≈ 10.7 µM) | MIC (Proteus rettgeri A 821 [1]): 1 µg/mL (≈ 1.79 µM); MIC [5]: 12.5 µg/mL (≈ 22.4 µM); MIC (Proteus mirabilis H 3): 3 µg/mL (≈ 5.37 µM); MIC (Proteus mirabilis A 1200): 1.5 µg/mL (≈ 2.69 µM); MIC [12]: 0.5 µg/mL (≈ 0.895 µM); MIC [14]: 1.5 µg/mL (≈ 2.69 µM); MIC [16]: 50 µg/mL (≈ 89.5 µM)
CC1(C)S[C@@H]2[C@H](NC(=O)C(C(=O)O)c3ccccc3)C(=O)N2[C@H]1C(=O)O (some centres unmarked) [carbenicillin, reference compound] | 25 (≈ 66.1 µM) | 0.5 (≈ 1.32 µM) | > 100 | 25 (≈ 66.1 µM) | 3 (≈ 7.93 µM) | 0.06 (≈ 0.159 µM) | 3 (≈ 7.93 µM) | 1.5 (≈ 3.96 µM) | 25 (≈ 66.1 µM) | 100 (≈ 264 µM) | 1.5 (≈ 3.96 µM) | 0.75 (≈ 1.98 µM) | 0.25 (≈ 0.661 µM) | 1.5 (≈ 3.96 µM) | MIC [17]: 0.25 µg/mL (≈ 0.661 µM); MIC (Proteus mirabilis H3): 0.6 µg/mL (≈ 1.59 µM); MIC [18]: 6 µg/mL (≈ 15.9 µM); MIC (Proteus mirabilis A1200): 0.45 µg/mL (≈ 1.19 µM); MIC [19]: 90 µg/mL (≈ 238 µM); MIC (Proteus rettgeri A 821 [20]): 0.12 µg/mL (≈ 0.317 µM)
